Data: publication PMC11672547, “Combination of Coevolutionary Information and Supervised Learning Enables Generation of Cyclic Peptide Inhibitors with Enhanced Potency from a Small Data Set” (ACS Central Science, 2024)
Read-outs that look alike come from different tables or passages of the source. Blank lines part the entries; values can stand above or below the molecule they belong to. Numbered stars: 1 amine (or outer) side, 2 acyl side, 3 side chain; on linkers, the order of the positions; unused ones are H or OH. Bridge positions count the residues as written; N and C are the ends. Peptide text beside a SMILES is read from it. TBMB = c1c(C[*:1])cc(C[*:3])cc1C[*:2]

Experiments:
[1] = target: T1, human urokinase-type plasminogen activator (huPA) (Homo sapiens, UniProt P00749); experiment: huPA inhibition, fluorogenic enzyme activity assay (Z-Gly-Gly-Arg-AMC), Ki by Cheng-Prusoff; format: biochemical; conditions: 25 °C
T1 construct: (UPA-LMW, Molecular Innovations, Novi, MI, USA) 1.5 nM; purchased Molecular Innovations UPA-LMW
Protocol: bicyclic peptides. The activity assay was performed by incubating […] huPA with 50 μM fluorogenic substrate Z-Gly-Gly-Arg-AMC (50 μM; Bachem, Bubendorf, Switzerland) and […]
NaCl, 10 mM MgCl2, 1mM CaCl2, 0.1% w/v BSA, 0.01% v/v Triton-X100 and 5% v/v DMSO.
The measurements were performed on a Tecan microplate reader (Tecan infinite 200 pro, Tecan Trading AG, Switzerland) using black microfluor 96-well plate Nunc MicroWell, (Thermo Fisher Scientific, Dreieich, Germany) The enzymatic reactions were performed at 25 °C for 30 min, under shacking with an excitation wavelength of 355 nm and an emission recording at 460 nm. The initial velocities were monitored as changes in fluorescence intensity. The sigmoidal curves were fitted to the data using the following non-linear regression equation for the inhibitory dose-response curves with variable slope (2): […]
where x is the peptide concentration, y is the residual percentage of protease activity and p is the hill slope. Half maximum inhibitory concentration (IC50) values were derived from the fitted curves from GraphPad Prism 8 8.0.0. software (GraphPad software, Inc., San Diego, California). The final Ki was subsequently determined using the Cheng-Prusoff equation (3): […]
where Km (115 μM) is the Michaelis constant for the hydrolysis of Z-Gly-Gly-Arg-AMC catalysed by huPA which has been determined by standard Michaelis-Menten equation.
Values were determined using either OriginPro 8G software (OriginLab Corporation, Northamppton, MA, USA) or GraphPad Prism 8.0.0. software (GraphPad software, Inc., San […]
Recombinant production of the catalytic domain of human urokinase-type […]
The low molecular weight (LMW) human urokinase-type plasminogen activator (huPA) comprising the truncated 23 amino acid peptide fragment of chain A (Lys136-Lys158 in […]

[2] = target: T1, human urokinase-type plasminogen activator (huPA); conditions: UK140 family of 31 phage-encoded bicyclic peptides; cited from earlier work
human factor XIIa = target: T2, human factor XIIa (Homo sapiens, UniProt P00748); experiment: Specificity determination, residual protease activity (fluorogenic substrate); format: biochemical; conditions: 25 °C, pH 7.4, Z-Gly-Gly-Arg-AMC 50 μM
T2 construct: human factor XIIa (IHFXIIa, Innovative Research,; purchased Innovative Research IHFXIIa
T2 sequence (P00748 373-615 limits assumed): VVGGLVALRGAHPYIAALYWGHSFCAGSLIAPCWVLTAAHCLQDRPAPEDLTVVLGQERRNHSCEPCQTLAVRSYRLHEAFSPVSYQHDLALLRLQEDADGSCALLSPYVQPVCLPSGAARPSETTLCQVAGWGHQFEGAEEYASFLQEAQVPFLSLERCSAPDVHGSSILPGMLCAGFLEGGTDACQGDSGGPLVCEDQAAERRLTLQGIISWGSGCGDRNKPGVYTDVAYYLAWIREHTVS
T2 sequence (P00748 20-372 partner limits assumed): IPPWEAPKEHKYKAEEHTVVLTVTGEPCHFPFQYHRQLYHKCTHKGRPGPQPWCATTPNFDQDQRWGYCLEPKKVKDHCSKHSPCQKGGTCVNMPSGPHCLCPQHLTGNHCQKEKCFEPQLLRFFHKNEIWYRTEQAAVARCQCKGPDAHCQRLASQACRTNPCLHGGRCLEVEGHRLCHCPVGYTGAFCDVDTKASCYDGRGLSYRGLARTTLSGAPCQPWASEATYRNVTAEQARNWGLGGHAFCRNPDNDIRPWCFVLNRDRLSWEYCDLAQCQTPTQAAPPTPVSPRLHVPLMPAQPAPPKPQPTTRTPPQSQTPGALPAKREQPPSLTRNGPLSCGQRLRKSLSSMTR
Protocol: (§1) 5% v/v DMSO. Final concentrations of serine proteases were the following: human uPA (UPA-LMW, Molecular Innovations, Novi, MI, USA) 1.5 nM, mouse uPA (MUPA-LMW, Molecular Innovations, Novi, MI, USA) 12 nM, human tPA (HTPATC; Molecular Innovations, Novi, MI, USA) 7.5 nM, mouse tPA (MTPA, Molecular Innovations, Novi, MI, USA) 6 nM, human trypsin (HTRYP, Molecular Innovations, Novi, MI, USA) 0.05 nM, human plasmin (HPLM, Molecular Innovations, Novi, MI, USA) 1.5 nM, human plasma kallikrein (IHPKA, Innovative Research, Novi, MI, USA) 0.5 nM, human thrombin (IHT, Innovative Research, Novi, MI, USA) 10 nM, and human factor XIIa (IHFXIIa, Innovative Research, Novi, MI, USA) 6 nM. Two-fold dilutions of UK970 bicyclic peptide inhibitor were prepared ranging from 1 mM to 125 nM for all the proteases. For human uPA an extra two-fold UK970 inhibitor dilution experiment was performed by using inhibitor concentrations ranging from 2000 nM to 0.12 nM. For the determination of the Ki inhibitory constants, the following fluorogenic substrates were used at final concentration of 50 μM: Z-Gly-Gly-Arg-AMC (for human uPA, murine uPA, human tPA, murine tPA, human trypsin, human thrombin and human factor XIIa; Bachem, Bubendorf, Switzerland), Z-Phe-Arg-AMC (for human plasma kallikrein; Bachem, Bubendorf, Switzerland) and H-D-Val-Leu-Lys-AMC (for human plasmin; Bachem, Bubendorf, Switzerland). The initial velocities were monitored as changes in fluorescence intensity during 30 min on a Tecan microplate reader (Tecan infinite 200 pro, Tecan Trading AG, Switzerland) using black microfluor 96-well plate Nunc MicroWell (Thermo Fisher Scientific, Dreieich, Germany). The enzymatic reactions were performed at 25 °C under shacking with an excitation wavelength of 355 nm and an emission recording at 460 nm.
(§2) Apparent equilibrium constants Kiapps values were determined by non-linear regression analyses of Vi/V0 versus [I]0 using equation (2). The final Kis were subsequently determined by correcting for the competitive effect of the substrate [S]0 using equation (3). The kinetic constants Kms for the hydrolysis of fluorogenic substrate, catalysed by each protease, were determined by standard Michaelis-Menten equation. Values were determined using either OriginPro 8G software (OriginLab Corporation, Northamppton, MA, USA) or GraphPad Prism 8.0.0. software (GraphPad software, Inc., San Diego, California). […]

human plasmin = target: T3, human plasmin (Homo sapiens, UniProt P00747); experiment: as above; format: biochemical; conditions: 25 °C, pH 7.4, H-D-Val-Leu-Lys-AMC 50 μM
T3 construct: Bachem; purchased Molecular Innovations HPLM
Protocol: as §1, §2

human tPA (htPA) = target: T4, human tPA (htPA) (Homo sapiens, UniProt P00750); experiment: as above; format: biochemical; conditions: 25 °C, pH 7.4, Z-Gly-Gly-Arg-AMC 50 μM
T4 construct: purchased Molecular Innovations HTPATC
Protocol: as §1, §2

murine tPA (mtPA) = target: T5, murine tPA (mtPA) (Mus musculus, UniProt P11214); experiment: as above; format: biochemical; conditions: 25 °C, pH 7.4, Z-Gly-Gly-Arg-AMC 50 μM
T5 construct: purchased Molecular Innovations MTPA
Protocol: as §1, §2

murine uPA (muPA) = target: T6, murine uPA (muPA) (Mus musculus, UniProt P06869); experiment: as above; format: biochemical; conditions: 25 °C, pH 7.4, Z-Gly-Gly-Arg-AMC 50 μM
T6 construct: mouse uPA (MUPA-LMW,; purchased Molecular Innovations MUPA-LMW
Protocol: as §1, §2

human plasma kallikrein = target: T7, human plasma kallikrein (Homo sapiens, UniProt P03952); experiment: as above; format: biochemical; conditions: 25 °C, pH 7.4, Z-Phe-Arg-AMC 50 μM
T7 construct: purchased Innovative Research IHPKA
Protocol: as §1, §2

human thrombin = target: T8, human thrombin (Homo sapiens, UniProt P00734); experiment: as above; format: biochemical; conditions: 25 °C, pH 7.4, Z-Gly-Gly-Arg-AMC 50 μM
T8 construct: human thrombin (IHT, Innovative Research,; purchased Innovative Research IHT
Protocol: as §1, §2

[3] = pH 7.4, substrate 50 μM, mean ± S.E. of at least three measurements, read-out: Ki

T6 sequence (P06869 180-433 limits assumed): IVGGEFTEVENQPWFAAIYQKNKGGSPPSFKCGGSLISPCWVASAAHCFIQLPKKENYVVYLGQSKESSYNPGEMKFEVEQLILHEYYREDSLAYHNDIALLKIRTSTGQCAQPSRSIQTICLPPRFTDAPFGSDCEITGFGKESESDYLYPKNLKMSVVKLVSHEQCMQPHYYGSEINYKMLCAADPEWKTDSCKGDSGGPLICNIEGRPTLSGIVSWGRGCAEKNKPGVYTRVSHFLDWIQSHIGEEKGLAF
T6 sequence (P06869 157-178 partner limits assumed): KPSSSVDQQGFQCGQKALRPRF
T7 sequence (P03952 391-638 limits assumed): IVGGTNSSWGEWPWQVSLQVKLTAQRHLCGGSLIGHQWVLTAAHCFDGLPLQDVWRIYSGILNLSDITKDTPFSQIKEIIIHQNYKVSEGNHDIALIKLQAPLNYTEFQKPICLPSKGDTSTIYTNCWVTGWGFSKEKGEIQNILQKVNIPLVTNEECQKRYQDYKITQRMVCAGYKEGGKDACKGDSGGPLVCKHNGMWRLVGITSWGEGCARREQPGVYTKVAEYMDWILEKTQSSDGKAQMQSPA
T7 sequence (P03952 20-390 partner limits assumed): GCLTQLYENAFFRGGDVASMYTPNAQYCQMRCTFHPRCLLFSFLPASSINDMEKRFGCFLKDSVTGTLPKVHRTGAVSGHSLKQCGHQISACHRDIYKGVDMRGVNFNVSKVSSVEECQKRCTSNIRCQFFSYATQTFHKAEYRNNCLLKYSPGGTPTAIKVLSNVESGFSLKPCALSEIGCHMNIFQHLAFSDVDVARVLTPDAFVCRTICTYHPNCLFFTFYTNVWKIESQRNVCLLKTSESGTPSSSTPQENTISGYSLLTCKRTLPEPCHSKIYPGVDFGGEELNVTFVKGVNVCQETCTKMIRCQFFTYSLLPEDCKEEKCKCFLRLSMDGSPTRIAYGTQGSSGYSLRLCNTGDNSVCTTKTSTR
T4 sequence (P00750 311-562 limits assumed): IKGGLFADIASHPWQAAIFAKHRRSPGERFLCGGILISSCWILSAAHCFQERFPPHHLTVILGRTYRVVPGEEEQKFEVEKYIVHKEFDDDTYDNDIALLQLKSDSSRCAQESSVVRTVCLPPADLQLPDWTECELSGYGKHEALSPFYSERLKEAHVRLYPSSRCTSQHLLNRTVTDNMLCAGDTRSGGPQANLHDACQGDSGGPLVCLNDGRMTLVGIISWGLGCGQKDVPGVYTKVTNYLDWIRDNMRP
T4 sequence (P00750 36-310 partner limits assumed): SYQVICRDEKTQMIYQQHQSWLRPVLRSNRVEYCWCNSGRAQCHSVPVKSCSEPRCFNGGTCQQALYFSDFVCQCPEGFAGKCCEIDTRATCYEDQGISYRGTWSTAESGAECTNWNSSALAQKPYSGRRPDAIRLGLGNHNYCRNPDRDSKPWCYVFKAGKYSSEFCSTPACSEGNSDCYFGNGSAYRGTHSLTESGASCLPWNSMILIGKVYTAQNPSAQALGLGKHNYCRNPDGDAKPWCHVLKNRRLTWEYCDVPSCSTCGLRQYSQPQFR
T5 sequence (P11214 33-559): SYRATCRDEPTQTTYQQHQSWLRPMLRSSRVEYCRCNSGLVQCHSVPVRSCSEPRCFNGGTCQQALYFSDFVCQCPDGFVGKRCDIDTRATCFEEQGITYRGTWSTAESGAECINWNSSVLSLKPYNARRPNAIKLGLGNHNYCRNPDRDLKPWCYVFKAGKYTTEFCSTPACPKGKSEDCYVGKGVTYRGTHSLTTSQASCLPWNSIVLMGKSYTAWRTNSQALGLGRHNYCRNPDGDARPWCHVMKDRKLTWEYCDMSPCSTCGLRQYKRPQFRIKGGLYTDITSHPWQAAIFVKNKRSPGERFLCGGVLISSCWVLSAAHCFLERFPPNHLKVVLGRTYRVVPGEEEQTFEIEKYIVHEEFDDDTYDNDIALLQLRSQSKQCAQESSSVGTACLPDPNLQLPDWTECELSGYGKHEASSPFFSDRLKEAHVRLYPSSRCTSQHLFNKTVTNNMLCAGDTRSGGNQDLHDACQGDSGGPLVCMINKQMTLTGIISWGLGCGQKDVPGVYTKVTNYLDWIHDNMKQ
T3 sequence (P00747 581-810 limits assumed): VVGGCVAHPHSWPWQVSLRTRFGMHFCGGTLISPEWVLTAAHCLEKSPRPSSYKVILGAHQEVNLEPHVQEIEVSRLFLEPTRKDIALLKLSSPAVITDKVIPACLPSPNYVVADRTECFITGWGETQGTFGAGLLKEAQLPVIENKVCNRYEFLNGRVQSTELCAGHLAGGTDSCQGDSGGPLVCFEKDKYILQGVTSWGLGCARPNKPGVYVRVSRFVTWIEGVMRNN
T3 sequence (P00747 97-580 partner limits assumed): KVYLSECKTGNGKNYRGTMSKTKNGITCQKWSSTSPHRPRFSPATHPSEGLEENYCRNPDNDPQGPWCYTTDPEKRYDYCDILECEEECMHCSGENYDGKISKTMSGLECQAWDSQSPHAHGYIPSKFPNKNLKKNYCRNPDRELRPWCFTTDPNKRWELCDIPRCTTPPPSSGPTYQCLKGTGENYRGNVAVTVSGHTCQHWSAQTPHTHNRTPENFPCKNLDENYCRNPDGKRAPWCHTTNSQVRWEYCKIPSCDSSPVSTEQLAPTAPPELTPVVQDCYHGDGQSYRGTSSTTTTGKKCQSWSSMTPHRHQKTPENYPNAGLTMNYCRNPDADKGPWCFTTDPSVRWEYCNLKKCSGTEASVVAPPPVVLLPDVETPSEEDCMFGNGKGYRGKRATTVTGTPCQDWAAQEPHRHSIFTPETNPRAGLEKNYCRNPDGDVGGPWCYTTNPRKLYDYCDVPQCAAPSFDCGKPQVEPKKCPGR

Compound: CC(C)[C@@H]1NC(=O)CNC(=O)[C@@H]2CSCc3cc(cc(c3)CSC[C@@H](C(=O)NCC(N)=O)NC(=O)[C@H](CO)NC(=O)[C@H](CO)NC(=O)[C@@H]3CCCN3C(=O)[C@H](CC(=O)O)NC1=O)CSC[C@H](NC(=O)[C@H](C)N)C(=O)N[C@@H](CC(N)=O)C(=O)N[C@@H](CO)C(=O)N[C@@H](CCCCN)C(=O)N[C@@H](Cc1ccccc1)C(=O)N[C@@H](CO)C(=O)NCC(=O)N2 [UK140, reference compound] (H-ACNSKFSGCGVDPSSCG-NH2; linker 2-9-16 via TBMB)
Ki [1, 3]: 202 nM | Ki [2]: 200 nM

Compound: CC(C)[C@@H]1NC(=O)CNC(=O)[C@@H]2CSCc3cc(cc(c3)CSC[C@@H](C(=O)NCC(N)=O)NC(=O)[C@H](CC(=O)O)NC(=O)CNC(=O)[C@@H]3CCCN3C(=O)[C@H](CC(=O)O)NC1=O)CSC[C@H](NC(=O)[C@H](C)N)C(=O)N[C@@H](CC(N)=O)C(=O)N[C@@H](CO)C(=O)N[C@@H](CCCCN)C(=O)N[C@@H](Cc1ccccc1)C(=O)N[C@@H](CO)C(=O)NCC(=O)N2 [UK975] (H-ACNSKFSGCGVDPGDCG-NH2; linker 2-9-16 via TBMB)
Ki [1, 3]: 874 nM

Compound: CC(C)[C@@H]1NC(=O)CNC(=O)[C@@H]2CSCc3cc(cc(c3)CSC[C@@H](C(=O)NCC(N)=O)NC(=O)[C@H](CC(=O)O)NC(=O)[C@H](CO)NC(=O)[C@@H]3CCCN3C(=O)[C@H](CC(=O)O)NC1=O)CSC[C@H](NC(=O)[C@H](C)N)C(=O)N[C@@H](CC(N)=O)C(=O)N[C@@H](CO)C(=O)N[C@@H](CCCCN)C(=O)N[C@@H](Cc1ccccc1)C(=O)N[C@@H](CO)C(=O)NCC(=O)N2 [UK976] (H-ACNSKFSGCGVDPSDCG-NH2; linker 2-9-16 via TBMB)
Ki [1, 3]: 119 ± 0.9 nM

Compound: CC(C)[C@@H]1NC(=O)CNC(=O)[C@@H]2CSCc3cc(cc(c3)CSC[C@@H](C(=O)NCC(N)=O)NC(=O)[C@H](CCC(=O)O)NC(=O)CNC(=O)[C@@H]3CCCN3C(=O)[C@H](CC(=O)O)NC1=O)CSC[C@H](NC(=O)[C@H](C)N)C(=O)N[C@@H](CC(N)=O)C(=O)N[C@@H](CO)C(=O)N[C@@H](CCCCN)C(=O)N[C@@H](Cc1ccccc1)C(=O)N[C@@H](CO)C(=O)NCC(=O)N2 [UK977] (H-ACNSKFSGCGVDPGECG-NH2; linker 2-9-16 via TBMB)
Ki [1, 3]: 157 ± 1.1 nM

Compound: CC(C)[C@@H]1NC(=O)CNC(=O)[C@@H]2CSCc3cc(cc(c3)CSC[C@@H](C(=O)NCC(N)=O)NC(=O)[C@H](CCC(=O)O)NC(=O)[C@H](CO)NC(=O)[C@@H]3CCCN3C(=O)[C@H](CC(=O)O)NC1=O)CSC[C@H](NC(=O)[C@H](C)N)C(=O)N[C@@H](CC(N)=O)C(=O)N[C@@H](CO)C(=O)N[C@@H](CCCCN)C(=O)N[C@@H](Cc1ccccc1)C(=O)N[C@@H](CO)C(=O)NCC(=O)N2 [UK978] (H-ACNSKFSGCGVDPSECG-NH2; linker 2-9-16 via TBMB)
Ki [1, 3]: 72 ± 0.7 nM | Ki (murine uPA (muPA)): 1.7 µM

Continued, values first:

Ki ([1]; pH 7.4, Z-Gly-Gly-Arg-AMC 50 μM, read-out: Ki ± S.E.): 4 ± 1 nM | Ki [1, 3]: 4.3 ± 0.1 nM | Ki (human factor XIIa): > 1 mM | Ki (human plasmin): > 1 mM | Ki (human tPA (htPA)): > 1 mM | Ki (murine tPA (mtPA)): > 1 mM | Ki (murine uPA (muPA)): > 1000 µM | Ki (human plasma kallikrein): > 1 mM | Ki (human thrombin): > 1 mM
Compound: CC(C)[C@@H]1NC(=O)[C@H](Cc2ccccc2)NC(=O)[C@H](CCCNC(=N)N)NC(=O)[C@H](CO)NC(=O)[C@@H](NC(=O)[C@H](C)N)CSCc2cc3cc(c2)CSC[C@@H](C(=O)NCC(N)=O)NC(=O)[C@@H]2CCCN2C(=O)CNC(=O)CNC(=O)[C@H](CCCNC(=N)N)NC(=O)CNC(=O)[C@H](CCCNC(=N)N)NC(=O)[C@H](CSC3)NC(=O)[C@H](CC(=O)O)NC(=O)[C@H](C(C)C)NC1=O [UK970] (H-ACSRFVVDCRGRGGPCG-NH2; linker 2-9-16 via TBMB)

Ki [1, 3]: 15.3 nM
Compound: CC(C)[C@@H]1NC(=O)[C@H](Cc2ccccc2)NC(=O)[C@H](CCCNC(=N)N)NC(=O)[C@H](CO)NC(=O)[C@@H](NC(=O)[C@H](C)N)CSCc2cc3cc(c2)CSC[C@@H](C(=O)NCC(N)=O)NC(=O)[C@@H]2CCCN2C(=O)CNC(=O)CNC(=O)[C@H](CCCNC(=N)N)NC(=O)CNC(=O)[C@H](CCCNC(=N)N)NC(=O)[C@H](CSC3)NC(=O)[C@H](CC(=O)O)NC(=O)[C@H]([C@@H](C)O)NC1=O [UK973] (H-ACSRFVTDCRGRGGPCG-NH2; linker 2-9-16 via TBMB)

Ki [1, 3]: 363 nM
Compound: CC(C)[C@@H]1NC(=O)CNC(=O)[C@@H]2CSCc3cc(cc(c3)CSC[C@@H](C(=O)NCC(N)=O)NC(=O)[C@H](CO)NC(=O)CNC(=O)[C@@H]3CCCN3C(=O)[C@H](CC(=O)O)NC1=O)CSC[C@H](NC(=O)[C@H](C)N)C(=O)N[C@@H](CC(N)=O)C(=O)N[C@@H](CO)C(=O)N[C@@H](CCCCN)C(=O)N[C@@H](Cc1ccccc1)C(=O)N[C@@H](CO)C(=O)NCC(=O)N2 [UK974] (H-ACNSKFSGCGVDPGSCG-NH2; linker 2-9-16 via TBMB)
